Reference: patent US20120172228A1, “ALCOHOL ALKOXYLATES AS ADJUVANTS FOR AGROCHEMICAL FORMULATIONS” (SYNGENTA CROP PROTECTION, LLC, priority 2009, published 2012)

What was measured:
Format in all cases: in vivo
[1] = test system: lolium perenne (LOLPE); test: Adjuvant with herbicide pinoxaden on LOLPE; conditions: 14 and 21 days
Experimental: In this example the response of the butylene oxide adjuvant 13 of Table 1 was measured at an application rate of 0.2% of the volume of the spray solution used. It was compared to the adjuvant tris 2-ethylhexyl phosphate [TEHP], which was applied at the higher rate of 0.5% by volume. The herbicide pinoxaden was applied at rates of 7.5, 11.25 or 15 grams per hectare by a laboratory track sprayer to the weed species lolium perenne (LOLPE), alopecurius myosuirides (ALOMY), and avena fatua (AVEFA). In each case the experiments were replicated four times and the percentage damage to the weeds was assessed visually at time periods of 14 and 21 days after application.

[2] = test system: setaria viridis (SETVI); test: Adjuvant with herbicide pinoxaden on SETVI; conditions: pinoxaden 7.5 or 15 g/ha; butylene oxide adjuvants 0.2%, TEHP 0.5% v/v; 14 and 21 days
Experimental: (§1) In this example Sample 13 from Table 1 was compared to the oil adjuvant blend Turbocharge™. The herbicide fomesafen was applied to the weed species xanthium strumarium (XANST), setaria viridis (SETVI), abutilon theophrasti (ABUTH), and chenopodium album (CHEAL) at rates of 60 or 120 grams per hectare, using a laboratory track sprayer. Each experiment was replicated four times and the percentage damage to the weeds was assessed visually at time periods of 7, 14 and 21 days after application. Each adjuvant was applied at a rate of 0.5% of the volume of the spray water. Four effects were evaluated: pesticide rate (2 levels), adjuvant type (two levels), weed species (four levels) and days after application (three levels). […] The effect of each adjuvant was pulled out from the model and the least significant differences evaluated using a Student's t method. […]
(§2) In this example the responses of the adjuvants 13, 17, 19, 21, 22 and 23 were measured at an application rate of 0.2% of the volume of the spray solution used. […] In each case the experiments were replicated four times and the percentage damage to the weeds was assessed visually at time periods of 14 and 21 days after application.
(§3) In this example the response of butylene oxide sample 27 of Table 1 was measured at an application rate of 0.2% of the volume of the spray solution used. […]

[3] = test system: avena fatua (AVEFA); test: Adjuvant with herbicide pinoxaden on AVEFA; conditions: 14 and 21 days
Experimental: as §1, §2, §3

[4] = test system: chenopodium album (CHEAL), digitaria sanguinalis (DIGSA), setaria viridis (SETVI), abutilon theophrasti (ABUTH); test: Adjuvant with herbicide nicosulfuron, track sprayer, mean across four weed species
Experimental: as §1, with “levels). A standard simple linear model was constructed to judge the significance of these effects.” for “levels).”
(§4) In this example the butylene oxide adjuvant Sample 13 of Table 1 was compared to the commercial oil adjuvant blend Atplus™411F. […] Each experiment was replicated four times and the percentage damage to the weeds was assessed visually at time periods of 14 and 21 days after application. […]
In this example the rate response of the butylene oxide adjuvant Sample 13 of Table 1 was measured and compared to the adjuvant TEHP. […]

[5] = test system: chenopodium album (CHEAL); test: Adjuvant with herbicide nicosulfuron on CHEAL; conditions: nicosulfuron 30 or 60 g/ha; adjuvants 0.2% of spray water; 14 and 21 days after application
Experimental: as §1, §4
In this example the responses of the butylene oxide adjuvants 13, 17, 19, 21, 22 and 23 of Table 1 were measured at an application rate of 0.2% of the volume of the spray solution used. […]

[6] = pinoxaden 7.5, 11.25 or 15 g/ha, Sample 13 0.2%, TEHP 0.5%
[7] = pinoxaden 7.5 or 15 g/ha, butylene oxide adjuvants 0.2%, TEHP 0.5% v/v

With `CCCCC(CC)COP(=O)(OCC(CC)CCCC)OCC(CC)CCCC` (centres unmarked) [TEHP, tris 2-ethylhexyl phosphate] the “mean efficacy (percentage damage to the weeds), LOLPE” value [1, 6] was 58.06; A %, the “mean efficacy (percentage damage to the weeds), LOLPE” value [1, 7] was 82.5; A % and the “mean efficacy (percentage damage to the weeds), SETVI” value [2] was 77.5; ABC %. For the same compound, the “mean efficacy (percentage damage to the weeds), AVEFA” value [3, 6] was 78.33; A %, the “mean efficacy (percentage damage to the weeds), AVEFA” value [3, 7] was 73.75; AB % and the “mean efficacy (percentage damage to the weeds), All weeds” value ([4]; nicosulfuron 30 or 60 g/ha, adjuvants 0.2% of spray water, 14 and 21 days after application) was 58.12; B %. The Mean % kill ([4]; nicosulfuron 30 to 60 g/ha, adjuvant rate 0.2% w/v, across four weed species, 14 and 21 days) was 58.12% and the “mean efficacy (percentage damage to the weeds), CHEAL” value [5] was 68.33; B %.
